Data reported in PubChem BioAssay AID2474 (The Scripps Research Institute Molecular Screening Center, 2010).

Target: Hepatitis C virus NS3 helicase
Experiment: IC50 of HCV NS3 unwinding blockers – biochemical, fluorescence, dose response, late-stage follow-up (AID 2474)
Settings: recombinant NS3 helicase, fluorescence unwinding assay; call rule not given here

IC50, active:
COc1cccc(-n2c(SCc3cc(=O)oc4cc(O)c(O)cc34)nc3ccccc3c2=O)c1 2880 nM, COc1ccc(C=NNC(=O)c2cc(O)c(O)c(O)c2)cc1COc1ccc(C(=O)OCC(C)C)cc1 9370 nM, CCOc1cccc(C2C(C(=O)c3ccc(C)o3)=C(O)C(=O)N2Cc2ccccc2)c1 (configuration not stated) 5290 nM, Cc1ccc(C(=O)C2=C(O)C(=O)N(Cc3ccco3)C2c2cccc(Cl)c2)o1 (configuration not stated) 6590 nM, CCCCCOc1ccc(C2C(C(=O)c3ccc(C)o3)=C(O)C(=O)N2c2cc(C)on2)cc1 (configuration not stated) 1810 nM, COc1cc(C2C(C(=O)c3ccc(C)o3)=C(O)C(=O)N2c2cc(C)on2)ccc1OCc1ccccc1 (configuration not stated) 1630 nM, Cc1cc(N2C(=O)C(O)=C(C(=O)c3ccc(C)o3)C2c2ccc(OCc3ccccc3)cc2)no1 (configuration not stated) 1470 nM
